The source of these data is patent US9880171B2, “iASPP phosphorylation and metastatic potential” (LUDWIG INSTITUTE FOR CANCER RESEARCH LTD., priority 2012, dated 2018).

Assay [1] relates to iASPP phosphorylated at ser 113. As to the kind of experiment: phospho-ser113 iASPP western blot in nocodazole-treated U2OS cells. Particulars: nocodazole 1 μM 16 hours, 0.5 μM JNJ-7706621. In kind it is cell-based, human. On the procedure: For the floating and adherent cells, the rounded (mitotic rich) cells were separated from the adherent cells after 24 hours treatment with nocodazole. Lysates were separated on a 6% SDS PAGE gel and proteins analysed by conventional western blotting. iASPP phosphor-[…] was detected using the antibody from rabbit 42310 as described in FIG. 23A, and total iASPP was detected by re-probing the blot with antibody LX049.3. Nucleolin was used as a loading control. […] Consistent with enhanced iASPP phosphorylation in nocodazole arrested mitotic cells, enhanced iASPP phosphorylation on ser 113 was also observed in the floating cells, which are mostly mitotic cells, and not in adherent cells (FIG. 23B). Total iASPP was detected by re-probing the blot with antibody LX049.3. Additionally, the specific binding of iASPP antibody (42310) to phosphorylated ser 113 were evaluated by determining the failure of iASPP antibody (42310) to bind when the protein is not phosphorylated at ser 113. Since CDK kinase phosphorylates iASPP at ser 113, CDK inhibitor JNJ-7706621 was used to treat human U2OS cells. […] Western blotting was carried out as described in FIG. 23B using an 8% SDS PAGE gel. When compared to untreated cells, binding of phosphor-ser 113 specific […] antibody was not observed in the presence 0.5 μM JNJ-7706621 (FIG. 23C). Total iASPP was detected by re-probing the blot with antibody LX049.3.

Assay [2] has as its system iASPP(-/-)MEFs. As to the kind of experiment: apoptosis markers (c-PARP, c-Caspase 3) in Ras and E1A transformed iASPP(-/-) MEFs. The assay is classed as cell-based, mouse. The note with it: vector transfected iASPP(-/-)MEFs, 24 hours. The procedure: FIG. 9. […] A. iASPP S84D/S113D binds p53 better than WT iASPP in vitro. in vitro translated iASPP-V5 (WT) or its mutant iASPP(S84D/S113D) (S84D/S113D) (Input) were incubated with nickel beads that were pre-bound with either p53(2-193)-His (p53) or BSA (BSA) to carry out an immunoprecipitation assay (IP). The amount of iASPP that was co-immunoprecipitated with p53 was detected by an anti-V5 antibody (iASPP V5 panel) whereas the amount of p53 immunoprecipitated was detected by an anti-His antibody (p53(2-193)-His panel). B iASPP S84D/S113D binds p53 better than WT iASPP in transfected cells. iASPP-V5 (WT) or its mutant iASPP(S84D/S113D) (S84D/S113D) and p53 were co-transfected in H1299 cells (Input). […] The amount of p53 pulled down is shown in (p53 panel) whereas p53 bound iASPP was determined by anti-V5 antibody (iASPP V5 panel). […] The expression levels of known apoptosis markers were detected in immunoblotting using D214 or D175 to detect cleaved PARP (c-PARP) or caspase 3 (c-caspase 3) respectively. […] Cells were dissolved in urea buffer and apoptosis markers (cleaved PARP, caspase-3) were determined by WB.
The anti-apoptotic function of iASPP and its mutant iASPP(S84D/S113D) was tested in Ras and E1A transformed iASPP(−/−)MEFs (referred to as iASPP(−/−)MEFs). […] Apoptosis was measured by the presence of cleaved PARP (c-PARP) or active caspase 3 (c-Caspase 3). […]

Consider `Nc1nc(Nc2ccc(S(N)(=O)=O)cc2)nn1C(=O)c1c(F)cccc1F` [JNJ-7706621], for which the “binding of phosphor-ser 113 specific anti-iASPP antibody (iASPP ser 113 phosphorylation)” value in assay [1] is on record as “not observed”.

As for `COc1ccc(C2=N[C@@H](c3ccc(Cl)cc3)[C@@H](c3ccc(Cl)cc3)N2C(=O)N2CCNC(=O)C2)c(OC(C)C)c1` [Nutlin3], the “apoptosis (increase in c-PARP and c-Caspase 3)” value in assay [2] is “apoptosis was detected”.
